The results in this text go back to patent publication US9321756B2, “Azole compounds as PIM inhibitors” (priority 2011, dated 2016).

SMILES strings stand for the structures. Read-outs that look alike come from different tables or passages of the source.

Holding throughout (type): biochemical
Experiment [1] has as its target full length recombinant Pim-2 (Homo sapiens (Human), UniProt Q9P1W9). As to the kind of experiment: Pim enzyme assay (HTRF, phosphorylation of biotinylated-BAD (S112) peptide), Pim-2. To be noted: read-out: Pim2_IC50.
Experiment [2] addresses full length recombinant Pim-3 (Homo sapiens (Human), UniProt Q86V86). As to the kind of experiment: Pim enzyme assay (HTRF, phosphorylation of biotinylated-BAD (S112) peptide), Pim-3. Particulars: read-out: Pim3 IC50. The source says:
Pim-3 was purchased from Millipore (UK).
The phosphorylation of biotinylated-BAD (S112) peptide by full length recombinant Pim-1, Pim-2, or Pim-3 protein was detected with streptavidin:Allophycocyanin (APC) conjugate and a europium (Eu) labeled antibody directed against phosphorylated-BAD (S112). […] The fluorescence is directly proportional to the amount of phosphorylated BAD peptide present in the reaction.
A reference compound was included on each assay plate in order to validate that plate; on one plate of every assay run, two additional reference compounds were included.
The final buffer conditions were as follows: 60 mM Hepes, pH 7.0, 0.05% BSA, 2 mM DTT. Incubations were carried out at RT (22° C.) for 2 h for Pim-1, 1 h and 30 min for Pim-3, and 45 min for Pim-2. The reaction was then stopped by the addition of 3 mM EDTA, and fluorescence was measured by an HTRF® Rubystar microplate reader. For each plate, percent of control (POC) values were calculated for each well. Values for the IC50 IP were estimated using a standard 4-parameter logistic model.
A general note: TR-FRET usually uses a lanthanide donor and a delayed reading to cut background.

In experiment [3] the target is full length recombinant Pim-1 (Homo sapiens (Human), UniProt P11309). As to the kind of experiment: Pim enzyme assay (HTRF, phosphorylation of biotinylated-BAD (S112) peptide), Pim-1. Particulars: Pim-1 enzyme assay; read-out: Pim_1_IC50.
Sequence of full length recombinant Pim-1 (P11309 whole entry): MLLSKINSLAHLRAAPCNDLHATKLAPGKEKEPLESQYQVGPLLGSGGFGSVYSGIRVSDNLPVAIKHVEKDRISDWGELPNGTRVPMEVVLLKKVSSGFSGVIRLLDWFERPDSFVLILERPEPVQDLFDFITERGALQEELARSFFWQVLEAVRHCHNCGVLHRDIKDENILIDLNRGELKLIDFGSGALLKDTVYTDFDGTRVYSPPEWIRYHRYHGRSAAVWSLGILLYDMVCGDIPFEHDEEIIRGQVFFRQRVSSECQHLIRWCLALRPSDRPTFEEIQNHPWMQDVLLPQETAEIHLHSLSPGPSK

Sequence of full length recombinant Pim-2 (Q9P1W9 whole entry): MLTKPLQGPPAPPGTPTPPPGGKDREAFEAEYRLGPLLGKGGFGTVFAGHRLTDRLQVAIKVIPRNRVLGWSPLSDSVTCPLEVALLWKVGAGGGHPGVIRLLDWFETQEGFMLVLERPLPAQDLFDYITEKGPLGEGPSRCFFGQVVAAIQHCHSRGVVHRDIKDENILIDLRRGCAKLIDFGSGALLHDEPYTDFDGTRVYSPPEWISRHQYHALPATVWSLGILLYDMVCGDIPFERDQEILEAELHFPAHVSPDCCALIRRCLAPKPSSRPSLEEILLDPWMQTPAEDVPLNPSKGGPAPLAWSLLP

In the case of `CC(C)Oc1cccc(-c2c[nH]c3ccc(-c4nnc(N)o4)nc23)c1` [Example 126, 5-(3-(3-(1-methylethoxy)phenyl)-1H-pyrrolo[3,2-b]pyridin-5-yl)-1,3,4-oxadiazol-2-amine], the IC50 was found to be 244 nM in experiment [1] (Pim-2 enzyme assay), 84.8 nM in experiment [2] (Pim-3 enzyme assay) and 272 nM in experiment [3].
In the same order, the values of `CC(C)Oc1cccc(-c2c[nH]c3ccc(-c4nnc(N)o4)cc23)c1` [Example 85, 5-(3-(3-(1-methylethoxy)phenyl)-1H-indol-5-yl)-1,3,4-oxadiazol-2-amine] are 385 nM, 81.8 nM and 225 nM.
Regarding `COc1cncc(-c2c[nH]c3ccc(-c4nnc(N)o4)nc23)c1` [Example 10, 5-(3-(5-methoxypyridin-3-yl)-1H-pyrrolo[3,2-b]pyridin-5-yl)-1,3,4-oxadiazol-2-amine], the values for the IC50 in experiment [1] (Pim-2 enzyme assay), in experiment [2] (Pim-3 enzyme assay) and in experiment [3] were 570 nM, 642 nM and 1130 nM, respectively.
Taken in the same sequence, the figures for `Nc1nnc(-c2ccc3[nH]cc(-c4cncc(-c5ccc(F)cc5)n4)c3c2)o1` [Example 7, 5-(3-(6-(4-fluorophenyl)pyrazin-2-yl)-1H-indol-5-yl)-1,3,4-oxadiazol-2-amine] were 42.5 nM, 19.7 nM and 28.8 nM.
In the same order, the values of `Nc1nnc(-c2ccc3[nH]cc(-c4cnc(N5CCCC5)cn4)c3c2)s1` [Example 189, 5-(3-(5-(1-pyrrolidinyl)-2-pyrazinyl)-1H-indol-5-yl)-1,3,4-thiadiazol-2-amine] are 690 nM, 73.2 nM and 564 nM.
In the same order, the values of `Nc1nnc(-c2ccc3[nH]cc(-c4cncc(C(=O)N5CCOCC5)c4)c3c2)o1` [Example 82, 5-(3-(5-(4-morpholinylcarbonyl)-3-pyridinyl)-1H-indol-5-yl)-1,3,4-oxadiazol-2-amine] are 1780 nM, 2380 nM and 2350 nM.
In the case of `c1ccc(-c2nnc(-c3ccc4[nH]cc(-c5nccc(C6CC6)n5)c4c3)o2)cc1` [Example 255, 3-(4-cyclopropyl-2-pyrimidinyl)-5-(5-phenyl-1,3,4-oxadiazol-2-yl)-1H-indole], the IC50 in experiment [1] (Pim-2 enzyme assay) came to 677 nM; in experiment [2] (Pim-3 enzyme assay), 123 nM; in experiment [3] it was 323 nM.
As for `Nc1ncc(-c2ccc3[nH]cc(-c4cnc5ccccc5c4)c3c2)s1` [Example 20, 5-(3-(quinolin-3-yl)-1H-indol-5-yl)thiazol-2-amine], the IC50 in experiment [1] was 2710 nM; in experiment [2] (Pim-3 enzyme assay), 267 nM; in experiment [3], 281 nM.
`CNc1nnc(-c2ccc3[nH]cc(-c4cccc(N5CCCCC5=O)n4)c3c2)s1` [Example 236, 1-(6-(5-(5-(methylamino)-1,3,4-thiadiazol-2-yl)-1H-indol-3-yl)-2-pyridinyl)-2-piperidinone]: the IC50 in experiment [1] (Pim-2 enzyme assay) came out at 538 nM; in experiment [2] (Pim-3 enzyme assay) it was 114 nM; in experiment [3] it was 325 nM.
In the same order, the values of `COC[C@@H]1CCCN1c1ccnc(-c2c[nH]c3ccc(-c4nnc(N)o4)cc23)n1` [Example 109, 5-(3-(4-((2S)-2-(methoxymethyl)-1-pyrrolidinyl)-2-pyrimidinyl)-1H-indol-5-yl)-1,3,4-oxadiazol-2-amine] are 26.8 nM, 13 nM and 32.2 nM.
Taken in the same sequence, the figures for `CC(Nc1nnc(-c2ccc3[nH]cc(-c4ncccn4)c3c2)o1)c1ccccc1` (stereo not shown) [Example 266, N-(1-phenylethyl)-5-(3-(2-pyrimidinyl)-1H-indol-5-yl)-1,3,4-oxadiazol-2-amine] were 229 nM, 43.6 nM and 64.8 nM.
In the same order, the values of `Cc1nnc2n1CCN(c1cccc(-c3c[nH]c4ccc(-c5nnc(N)s5)cc34)n1)C2` [Example 25, 5-(3-(6-(3-methyl-5,6-dihydro-[1,2,4]triazolo[4,3-a]pyrazin-7(8H)-yl)pyridin-2-yl)-1H-indol-5-yl)-1,3,4-thiadiazol-2-amine 2,2,2-trifluoroacetate] are 88.7 nM, 3.02 nM and 17.5 nM.
In the case of `Nc1nnc(-c2ccc3[nH]cc(-c4ccccc4F)c3c2)o1` [Example 84, 5-(3-(2-fluorophenyl)-1H-indol-5-yl)-1,3,4-oxadiazol-2-amine], the IC50 in experiment [1] (Pim-2 enzyme assay) amounted to 140 nM; in experiment [2] (Pim-3 enzyme assay), 26 nM; in experiment [3] it was 92.6 nM.
Take `Nc1nnc(-c2ccc3[nH]cc(-c4ncccn4)c3c2)o1` [Example 93, 5-(3-(2-pyrimidinyl)-1H-indol-5-yl)-1,3,4-oxadiazol-2-amine]: the IC50 in experiment [1] (Pim-2 enzyme assay) came out at 111 nM; in experiment [2] (Pim-3 enzyme assay), 140 nM; in experiment [3] it was 269 nM.
For `CNc1nnc(-c2ccc3[nH]cc(-c4cccnc4)c3c2)s1` [Example 220, N-methyl-5-(3-(3-pyridinyl)-1H-indol-5-yl)-1,3,4-thiadiazol-2-amine], the IC50 in experiment [1] (Pim-2 enzyme assay) was determined as 1230 nM; in experiment [2] (Pim-3 enzyme assay) it was 274 nM; in experiment [3] it was 636 nM.
Turning to `O=c1[nH]nc(-c2ccc3[nH]cc(-c4cncc(C5CC5)n4)c3c2)o1` [Example 38, 5-(3-(6-Cyclopropylpyrazin-2-yl)-1H-indol-5-yl)-1,3,4-oxadiazol-2(3H)-one 2,2,2-trifluoroacetate], the figures for the IC50 in experiment [1], in experiment [2] and in experiment [3] were 54.5 nM, 37.7 nM and 65.5 nM, respectively.
On to `CNc1nnc(-c2ccc3[nH]cc(-c4cccc(-n5ccnc5C)n4)c3c2)s1` [Example 234, N-methyl-5-(3-(6-(2-methyl-1H-imidazol-1-yl)-2-pyridinyl)-1H-indol-5-yl)-1,3,4-thiadiazol-2-amine], for which the figures for the IC50 in experiment [1] (Pim-2 enzyme assay), in experiment [2] (Pim-3 enzyme assay) and in experiment [3] were 123 nM, 18.5 nM and 108 nM, respectively.
As to `NC1CCN(c2nnc(-c3ccc4[nH]cc(-c5ccccc5F)c4c3)s2)CC1` [Example 144, 1-(5-(3-(2-fluorophenyl)-1H-indol-5-yl)-1,3,4-thiadiazol-2-yl)-4-piperidinamine], the IC50 is 1700 nM in experiment [1] (Pim-2 enzyme assay), 163 nM in experiment [2] (Pim-3 enzyme assay) and 267 nM in experiment [3].
`Nc1nnc(-c2ccc3[nH]cc(-c4cccc(F)n4)c3c2)s1` [Example 209, 5-(3-(6-fluoro-2-pyridinyl)-1H-indol-5-yl)-1,3,4-thiadiazol-2-amine]: the IC50 is 558 nM in experiment [1] (Pim-2 enzyme assay), 149 nM in experiment [2] (Pim-3 enzyme assay) and 705 nM in experiment [3].
In the same order, the values of `CNc1nnc(-c2ccc3[nH]cc(-c4cn[nH]c4)c3c2)s1` [Example 218, N-methyl-5-(3-(1H-pyrazol-4-yl)-1H-indol-5-yl)-1,3,4-thiadiazol-2-amine] are 623 nM, 123 nM and 241 nM.
In the same order, the values of `CNc1nnc(-c2ccc3[nH]cc(-c4cccc(F)n4)c3c2)s1` [Example 239, 5-(3-(6-fluoro-2-pyridinyl)-1H-indol-5-yl)-N-methyl-1,3,4-thiadiazol-2-amine] are 739 nM, 170 nM and 1030 nM.
Turning to `Cc1nc(-c2c[nH]c3ccc(-c4nnc(N)s4)cc23)ccc1F` [Example 191, 5-(3-(5-fluoro-6-methyl-2-pyridinyl)-1H-indol-5-yl)-1,3,4-thiadiazol-2-amine], in experiment [2] (Pim-3 enzyme assay), the IC50 came to 144 nM.
